{"source": "the supplement of paper PMC10307832", "test_in_all_cases": "relative viability (nuclei count vs DMSO), 5 days (fraction); higher = more cells survive", "key": {"Pemetrexed + Trametinib": {"compound": "Nc1nc2[nH]cc(CCc3ccc(C(=O)N[C@@H](CCC(=O)O)C(=O)O)cc3)c2c(=O)[nH]1 [Pemetrexed] + CC(=O)Nc1cccc(-n2c(=O)n(C3CC3)c(=O)c3c(Nc4ccc(I)cc4F)n(C)c(=O)c(C)c32)c1 [Trametinib] (partner 0.02 µM)", "method_in_brief": "(§1)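 Nuclei were stained with Hoechst during a one-step fixation (final 0.05% Triton X-100, 1% formaldehyde, 1 ug/ml Hoechst) carried out 5 days after dosing, then counted on 4× images. The cells, lung cancer lines in 1536-well plates, had been dosed by pin tool the day after seeding with one drug alone or a fixed anchor-drug dose plus five library-drug doses (not always all listed) in √10 steps. Relative viability is the nuclei count in treated wells divided by that in vehicle wells, and each value is the median of duplicate plates.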"}, "Idelalisib + Phenformin": {"compound": "CC[C@H](Nc1ncnc2[nH]cnc12)c1nc2cccc(F)c2c(=O)n1-c1ccccc1 [Idelalisib] + N=C(N)NC(=N)NCCc1ccccc1 [Phenformin] (partner 250 µM)", "method_in_brief": "as §1"}, "Idelalisib + Decitabine": {"compound": "CC[C@H](Nc1ncnc2[nH]cnc12)c1nc2cccc(F)c2c(=O)n1-c1ccccc1 [Idelalisib] + Nc1ncn([C@H]2C[C@H](O)[C@@H](CO)O2)c(=O)n1 [Decitabine] (partner 2 µM)", "method_in_brief": "as §1"}, "Pemetrexed + Palbociclib": {"compound": "Nc1nc2[nH]cc(CCc3ccc(C(=O)N[C@@H](CCC(=O)O)C(=O)O)cc3)c2c(=O)[nH]1 [Pemetrexed] + CC(=O)c1c(C)c2cnc(Nc3ccc(N4CCNCC4)cn3)nc2n(C2CCCC2)c1=O [Palbociclib] (partner 0.5 µM)", "method_in_brief": "as §1"}}, "data": [{"cell line": "UMC-11", "values": [{"measurement": "relative viability", "setting": "Pemetrexed + Trametinib; first compound 0.002 µM", "result": 0.659}, {"measurement": "relative viability", "setting": "Pemetrexed + Trametinib; first compound 0.006325 µM", "result": 0.663}, {"measurement": "relative viability", "setting": "Pemetrexed + Trametinib; first compound 0.02 µM", "result": 0.819}, {"measurement": "relative viability", "setting": "Pemetrexed + Trametinib; first compound 0.06325 µM", "result": 0.655}, {"measurement": "relative viability", "setting": "Pemetrexed + Trametinib; first compound 0.2 µM", "result": 0.619}, {"measurement": "relative viability", "setting": "Idelalisib + Phenformin; first compound 0.04 µM", "result": 0.323}, {"measurement": "relative viability", "setting": "Idelalisib + Phenformin; first compound 0.1265 µM", "result": 0.327}, {"measurement": "relative viability", "setting": "Idelalisib + Phenformin; first compound 0.4 µM", "result": 0.303}, {"measurement": "relative viability", "setting": "Idelalisib + Phenformin; first compound 1.265 µM", "result": 0.321}, {"measurement": "relative viability", "setting": "Idelalisib + Phenformin; first compound 4 µM", "result": 0.318}, {"measurement": "relative viability", "setting": "Idelalisib + Decitabine; first compound 0.04 µM", "result": 0.698}, {"measurement": "relative viability", "setting": "Idelalisib + Decitabine; first compound 0.1265 µM", "result": 0.595}, {"measurement": "relative viability", "setting": "Idelalisib + Decitabine; first compound 0.4 µM", "result": 0.577}, {"measurement": "relative viability", "setting": "Idelalisib + Decitabine; first compound 1.265 µM", "result": 0.609}, {"measurement": "relative viability", "setting": "Idelalisib + Decitabine; first compound 4 µM", "result": 0.333}, {"measurement": "relative viability", "setting": "Pemetrexed + Palbociclib; first compound 0.002 µM", "result": 0.344}, {"measurement": "relative viability", "setting": "Pemetrexed + Palbociclib; first compound 0.006325 µM", "result": 0.322}, {"measurement": "relative viability", "setting": "Pemetrexed + Palbociclib; first compound 0.02 µM", "result": 0.343}, {"measurement": "relative viability", "setting": "Pemetrexed + Palbociclib; first compound 0.06325 µM", "result": 0.342}, {"measurement": "relative viability", "setting": "Pemetrexed + Palbociclib; first compound 0.2 µM", "result": 0.357}]}]}
